One data set has as its system MCF7 cells. Put plainly: MTT-based cell viability assay. On the set-up: species or system human. Particulars: 5, 10, 15, and 25 µg/mL of P18. As for the experimental part:
(§1) Using 96-well plates with approximately 2000 cells per well, an MTT-based metabolic activity assay was performed. The cells were treated with agents and incubated for two days. On the fourth day, they were stained with 0.5 mg/mL thiazolyl blue tetrazolium bromide (M5655, Sigma). The optical density, used to assess metabolic activity, was measured at 562 nm. For the EdU-based proliferation activity assay, the cells were seeded in 96-well plates at about 1000 cells per well. A fluorescence-based cell proliferation kit (Click-iT™, EdU Alexa Fluor™ 488 Imaging Kit; Thermo Fisher, Waltham, MA, USA) was used according to the manufacturer’s instructions.

Data set [1] has as its system MDA-MB-231 cells. Put plainly: MTT-based cell viability assay. Details: species or system human. As for the experimental part: as §1
Data set [2] deals with MDA-MB-436 cells. Put plainly: MTT-based cell viability assay. On the set-up: species or system human. The protocol:
as §1

Another data set has as its system PANC1 PDAC cells. As to the kind of experiment: MTT-based cell viability assay. Particulars: 25 μg/mL. The protocol: as §1
The subject of the next data set is PANC198 PDAC cells. Put plainly: MTT-based cell viability assay. Particulars: PANC198 (PAN198); 25 μg/mL. As for the experimental part: as §1
The test system of data set [3] is TT2 osteosarcoma cell line. As to the kind of experiment: MTT-based cell viability assay. Particulars: TT2; 25 μg/mL. The protocol:
as §1

The subject of data set [4] is peripheral blood mononuclear cells. In kind it is cell-based, human. As for the experimental part: as §1
In another data set the test system is Jurkat lymphocytes. It is filed as cell-based. As for the experimental part:
as §1

The subject of a further data set is MC3T3 osteoblasts. It is filed as cell-based. As for the experimental part:
as §1

The test system of data set [5] is 4T1.2 mammary tumor cells. Put plainly: Scratch-based motility assay. Particulars: 25 μg/mL. It is filed as cell-based, mouse. The protocol:
To evaluate the two-dimensional motility of cancer cells, a wound-healing scratch assay was utilized, and the change in the scratch area was determined. On day 1, ~3 × 10^5 cells were seeded in 12-well plates, and, on day 2, a scratch was made on the cell layer, with the tip of a plastic pipette. Using a light microscope (40×), cell-free zones were imaged after 0 h and 24 h, and the alteration in their areas was quantified by Image J (Version 1.54 f).

Data set [6] concerns MDA-MB-231 cells. Put plainly: EdU-based proliferation assay. It is filed as cell-based, human. Particulars: 25 µg/mL. The protocol: as §1
Data set [7] concerns MDA-MB-436 cells. Put plainly: EdU-based proliferation assay. It is filed as cell-based, human. Particulars: 25 µg/mL. As for the experimental part:
as §1

The test system of data set [8] is MDA-MB-231 cells. Put plainly: Transwell invasion assay. In kind it is cell-based, human. Particulars: 25 µg/mL. As for the experimental part: (§2) The invasion capacity of cancer cells in response to ACPs was assessed using 8 µm pore transwell chambers (353182, Thermo Fisher) in a 12-well plate. The chambers were coated with 300 µL Matrigel (100 µg/mL) and filled with 500 µL of the serum-free medium. After washing the chamber three times with the serum-free medium, approximately 7 × 10^4 cells in 300 µL serum-free DMEM were placed in the upper chamber, while 800 µL medium was added to the lower chamber. Cells that migrated to the lower side of the membrane were fixed with methanol and stained with crystal violet. Five random images were captured with an inverted optical microscope at 100× magnification, and the average number of stained cells, representing the invasion capacity, was determined.

Data set [9] concerns MDA-MB-436 cells. Put plainly: Transwell invasion assay. Particulars: 25 µg/mL. It is filed as cell-based, human. As for the experimental part: as §2
Data set [10] deals with human triple-negative breast cancer tissue. Put plainly: Ex vivo cancer tissue assay. In kind it is cell-based. Particulars: 25 µg/mL of P18; four days (96 h); n = 6. As for the experimental part:
The usage of human triple-negative breast cancer tissue was approved by the Indiana University Institutional Review Board (1911155674), and the tissues were received from the Indiana University Simon Comprehensive Cancer Center Tissue Procurement Core. Freshly isolated breast cancer tissue (~10 mg) was manually fragmented with a scalpel into small pieces (0.5~0.8 mm in length), which were grown in DMEM with 10% FBS and antibiotics for a day. […] The culture medium, consisting of these agents, was applied for 4 days, and a change in the fragment size was determined.

Another data set concerns Col1, ALP, OCN. As to the kind of experiment: Western blot analysis of osteoblast development proteins. Particulars: Suppl. Figure S1d. In kind it is cell-based. As for the experimental part: (§3) Cells were lysed using a RIPA lysis buffer (sc-24948, Santa Cruz Biotech, Dallas, TX, USA) containing protease inhibitors (PIA32963, Thermo Fisher) and phosphatase inhibitors (2006643, Cal-biochem, Billerica, MA, USA). The proteins were separated on 10–15% SDS gels (Bio-Rad Laboratories, Hercules, CA, USA) and transferred to a polyvinylidene difluoride membrane (IPVH00010, Millipore, Billerica, MA, USA). The membrane was incubated with primary antibodies, followed by incubation with secondary antibodies (7074S/7076S, Cell Signaling, Danvers, MA, USA). The antibodies used included those against Snail, p-Src, Src, cleaved caspase 3, caspase 3, RANKL, Cdc42, Col1 and RhoA (Cell Signaling), ALP (Santa Cruz Biotech), OCN (Abcam, Boston, MA, USA), with β-actin (Sigma) as a control. The protein levels were detected using SuperSignal West Femto Maximum Sensitivity Substrate (PI34096, Thermo Fisher) and a luminescent image analyzer (LAS-3000, Fuji Film, Tokyo, Japan).

In data set [11] the test system is femurs inoculated with 4T1.2 mammary tumor cells. As to the kind of experiment: Bone microenvironment assay (ex vivo bone culture, Western blot). It is filed as cell-based, mouse. Particulars: 25 μg/mL P18 daily; 2 weeks. The protocol:
as §3
Femora were collected from […] female mice (~10 weeks old), and the surrounding connective tissues were removed. The femora were cut in half at the mid-diaphysis, and a hole was created at the end of the sample using a 25-gauge needle. 4T1.2 mammary tumor cells (2.5 × 10^5 cells) were resuspended in 10 μL of culture medium and injected into the bone marrow cavity through the open end of the diaphysis. […]

[12] abbreviates: relative to cn = 1.00, peptide concentration not given, treated two days, OD 562 nm.

The values that follow come from paper PMC11202002, “P18: Novel Anticancer Peptide from Induced Tumor-Suppressing Cells Targeting Breast Cancer and Bone Metastasis” (Cancers, 2024).

Consider TDYMVGSYGPR [P18], for which the “decrease in MTT viability” value was “dose-dependent” with MCF7 cells; “dose-dependent” with MDA-MB-231 cells [1] (5, 10, 15, and 25 µg/mL of P18); “dose-dependent” with MDA-MB-436 cells [2] (5, 10, 15, and 25 µg/mL of P18). In addition, the results for the MTT-based relative viability in the data set with MDA-MB-231 cells [1] (setting [12]) and with MDA-MB-436 cells [2] (setting [12]) were 0.86 and 0.82, respectively. The MTT-based viability result (in the data set on PANC1 PDAC cells; in the data set on PANC198 PDAC cells; in [3]) was “significantly decreased” in each case. For the same sequence, the MTT viability result (in [4]; in the data set with Jurkat lymphocytes; with MC3T3 osteoblasts) was “did not exhibit any significant effects” each time. Besides, the scratch-based mobility result in [5] is given as “consistently reduced”. Besides, the EdU-based proliferation entry is recorded as “decreased” with MDA-MB-231 cells [6] and “inhibited” in the data set on MDA-MB-436 cells [7]. Further, the transwell invasion result with MDA-MB-231 cells [8] is reported as “decreased”; in the data set on MDA-MB-436 cells [9], “inhibited”. Also, the “size of ex vivo breast tissue fragments” value in [10] is recorded as “significant decrease in the size”. In the data set on Col1, ALP, OCN, the “expression of type I collagen (Col1), alkaline phosphatase (ALP), and osteocalcin (OCN)” value is recorded as “upregulated”. The “levels of c-Cas 3, Cdc42, and alkaline phosphatase (ALP)” value in data set [11] is recorded as “upregulation”.
